Among the data in US9108921B2, “Therapeutic compounds and compositions” (AGIOS PHARMACEUTICALS, INC, priority 2014, dated 2015) are AC50 values, retold here.

Where only a bound is given, the exact number is not on record here.

In experiment [1] the target is T1, PKR WT (Homo sapiens, UniProt P30613). The experiment can be described thus: PKR WT enzymatic AC50 assay. In kind it is biochemical. The settings on record: wild type PKR. In a few lines:
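LDH-coupled NADH depletion read as A340 change at room temperature after ADP (0.22-1.65 mM) start. Compounds, tested from 100 μM final in 3-fold steps over 11 points with 1% DMSO, sat 60 min with enzyme (80-400 ng/well), PEP 0.1-0.5 mM and NADH 180 uM in Tris pH 7.5/KCl/MgCl2/DTT/BSA buffer.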

Another experiment addresses PKR R510Q (Homo sapiens, UniProt P30613, R510Q). Put plainly: PKR Mutant Assay, AC50 against PKR R510Q. The following applies: mutant PKR R510Q enzyme. The format is biochemical. In a few lines:
(§1)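 LDH-coupled read-out: NADH (180 uM) consumption followed as absorbance change at 340 nm, room temperature, after ADP addition. Mutant PKR enzyme 80-400 ng/well, PEP 0.1-0.5 mM, ADP 0.22-1.65 mM; compound preincubated 60 min with all components except ADP.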

The target in the next experiment is PKR R532W (Homo sapiens, UniProt P30613, R532W). The experiment can be described thus: PKR Mutant Assay, AC50 against PKR R532W. In kind it is biochemical. The following applies: mutant PKR R532W enzyme. An outline of the steps: as §1
PKR R532W, sequence (P30613 whole entry R532W): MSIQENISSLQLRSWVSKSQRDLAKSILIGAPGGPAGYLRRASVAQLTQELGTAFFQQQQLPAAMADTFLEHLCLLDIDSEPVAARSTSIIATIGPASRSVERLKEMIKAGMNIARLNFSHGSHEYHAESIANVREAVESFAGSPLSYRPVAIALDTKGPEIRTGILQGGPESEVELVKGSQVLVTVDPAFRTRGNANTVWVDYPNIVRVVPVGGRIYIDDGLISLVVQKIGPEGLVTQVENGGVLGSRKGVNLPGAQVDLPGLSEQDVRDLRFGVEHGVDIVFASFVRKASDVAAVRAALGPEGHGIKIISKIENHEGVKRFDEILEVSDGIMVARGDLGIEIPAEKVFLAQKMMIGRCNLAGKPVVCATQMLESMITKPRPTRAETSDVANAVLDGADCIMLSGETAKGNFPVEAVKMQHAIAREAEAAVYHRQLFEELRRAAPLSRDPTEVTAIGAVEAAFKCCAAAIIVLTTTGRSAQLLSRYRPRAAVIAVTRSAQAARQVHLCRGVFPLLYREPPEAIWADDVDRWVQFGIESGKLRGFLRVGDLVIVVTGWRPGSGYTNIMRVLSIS
The target in experiment [2] is T1, PKR WT. The experiment can be described thus: PKR WT cell based AC50 assay. The settings on record: wild type PKR.

PKR R510Q, sequence (P30613 whole entry R510Q): as the sequence (P30613 whole entry R532W) above, with R510Q, W532R counted along it
T1 sequence (P30613 whole entry): as the sequence (P30613 whole entry R532W) above, with W532R counted along it

As for `O=C(c1ccc(NS(=O)(=O)c2cccc3scnc23)cc1)N1CCC(O)(CCC=C(F)F)CC1` [Compound 393, N-(4-(4-(4,4-difluorobut-3-en-1-yl)-4-hydroxypiperidine-1-carbonyl)phenyl)benzo[d]thiazole-4-sulfonamide], the concentration at half-maximal activity (AC50) is below 100 nM at PKR WT [1], 101 to 1000 nM on PKR R510Q, below 100 nM on PKR R532W and below 100 nM on PKR WT [2].
With `O=C(c1ccc(NS(=O)(=O)c2cccc3scnc23)cc1)N1CCC(O)(CCCC(F)(F)F)CC1` [Compound 394, N-(4-(4-hydroxy-4-(4,4,4-trifluorobutyl)piperidine-1-carbonyl)phenyl)benzo[d]thiazole-4-sulfonamide], the AC50 at PKR WT [1] was below 100 nM; at PKR R510Q, 101 to 1000 nM; on PKR R532W, below 100 nM; on PKR WT [2], below 100 nM.
`O=C(c1ccc(NS(=O)(=O)c2cccc3scnc23)cc1)N1CCC(O)(CCC(F)=C(F)F)CC1` [Compound 395, N-(4-(4-hydroxy-4-(3,4,4-trifluorobut-3-enyl)piperidine-1-carbonyl)phenyl)benzo[d]thiazole-4-sulfonamide]: the AC50 is below 100 nM at PKR WT [1], 101 to 1000 nM at PKR R510Q, below 100 nM on PKR R532W and 101 to 1000 nM at PKR WT [2].
`CC(F)(F)CCC1(O)CCN(C(=O)c2ccc(NS(=O)(=O)c3cccc4nccnc34)cc2)CC1` [Compound 396, N-(4-(4-(3,3-difluorobutyl)-4-hydroxypiperidine-1-carbonyl)phenyl)quinoxaline-5-sulfonamide]: the AC50 is below 100 nM at PKR WT [1], 101 to 1000 nM at PKR R510Q, 101 to 1000 nM on PKR R532W and below 100 nM on PKR WT [2].
For the compound `O=C(c1ccc(NS(=O)(=O)c2cccc3nccnc23)cc1)N1CCC(O)(CCCC(F)(F)F)CC1` [Compound 397, N-(4-(4-hydroxy-4-(4,4,4-trifluorobutyl)piperidine-1-carbonyl)phenyl)quinoxaline-5-sulfonamide], the AC50 on PKR WT [1], at PKR R510Q, at PKR R532W and at PKR WT [2] was below 100 nM throughout.
For `O=C(c1ccc(NS(=O)(=O)c2cccc3nccnc23)cc1)N1CCC(O)(CCC(F)=C(F)F)CC1` [Compound 398, N-(4-(4-hydroxy-4-(3,4,4-trifluorobut-3-enyl)piperidine-1-carbonyl)phenyl)quinoxaline-5-sulfonamide], the AC50 was below 100 nM at PKR WT [1], 101 to 1000 nM at PKR R510Q, below 100 nM on PKR R532W and below 100 nM at PKR WT [2].
In the case of `O=C(c1ccc(NS(=O)(=O)c2cccc3nccnc23)cc1)N1CCC(O)(CCC=C(F)F)CC1` [Compound 399, N-(4-(4-(4,4-difluorobut-3-en-1-yl)-4-hydroxypiperidine-1-carbonyl)phenyl)quinoxaline-5-sulfonamide], the AC50 on PKR WT [1], on PKR R510Q, on PKR R532W and at PKR WT [2] was below 100 nM each time.
On to `O=C(c1ccc(NS(=O)(=O)c2cccc3nccnc23)cc1)N1CCC(O)(CCCC(F)F)CC1` [Compound 400, N-(4-(4-(4,4-difluorobutyl)-4-hydroxypiperidine-1-carbonyl)phenyl)quinoxaline-5-sulfonamide], for which the AC50 at PKR WT [1] was below 100 nM; on PKR R510Q, 101 to 1000 nM; at PKR R532W, below 100 nM; at PKR WT [2], below 100 nM.
With `O=C(c1ccc(NS(=O)(=O)c2cc(F)cc3scnc23)cc1)N1CCC(O)(c2ccccc2Cl)CC1` [Compound 401, N-(4-(4-(2-chlorophenyl)-4-hydroxypiperidine-1-carbonyl)phenyl)-6-fluorobenzo[d]thiazole-4-sulfonamide], the AC50 at PKR WT [1] is below 100 nM; at PKR R510Q it was 101 to 1000 nM; on PKR R532W, below 100 nM; on PKR WT [2], 101 to 1000 nM.
Consider `CC(C)CC1(O)CCN(C(=O)c2ccc(NS(=O)(=O)c3cccc4ccc(N)nc34)cc2)CC1` [Compound 402, 2-amino-N-(4-(4-hydroxy-4-isobutylpiperidine-1-carbonyl)phenyl)quinoline-8-sulfonamide], for which the AC50 at PKR WT [1], on PKR R510Q, at PKR R532W and on PKR WT [2] was below 100 nM throughout.
In the case of `CC(C)(F)CC1(O)CCN(C(=O)c2ccc(NS(=O)(=O)c3cccc4scnc34)cc2)CC1` [Compound 403, N-(4-(4-(2-fluoro-2-methylpropyl)-4-hydroxypiperidine-1-carbonyl)phenyl)benzo[d]thiazole-4-sulfonamide], the concentration at half-maximal activity (AC50) at PKR WT [1] is 101 to 1000 nM; at PKR R510Q, 101 to 1000 nM; at PKR R532W it was below 100 nM; at PKR WT [2] it was below 100 nM.
Turning to `O=C(c1ccc(NS(=O)(=O)c2cccc3scnc23)cc1)N1CCC(O)(/C=C/CC(F)(F)F)CC1` [Compound 404, (E)-N-(4-(4-hydroxy-4-(4,4,4-trifluorobut-1-enyl)piperidine-1-carbonyl)phenyl)benzo[d]thiazole-4-sulfonamide], the AC50 is below 100 nM at PKR WT [1], below 100 nM on PKR R510Q, below 100 nM at PKR R532W and 101 to 1000 nM at PKR WT [2].
For the compound `CC(CC1(O)CCN(C(=O)c2ccc(NS(=O)(=O)c3cccc4scnc34)cc2)CC1)C(F)F` (stereo not shown) [Compound 405, N-(4-(4-(3,3-difluoro-2-methylpropyl)-4-hydroxypiperidine-1-carbonyl)phenyl)benzo[d]thiazole-4-sulfonamide], the AC50 on PKR WT [1], on PKR R510Q, on PKR R532W and at PKR WT [2] was 101 to 1000 nM in each case.
Take `CC(C)CC1(O)CCN(C(=O)c2ccc(NS(=O)(=O)c3cccc4sc(N)nc34)cc2)CC1` [Compound 406, 2-amino-N-(4-(4-hydroxy-4-isobutylpiperidine-1-carbonyl)phenyl)benzo[d]thiazole-4-sulfonamide]: the AC50 at PKR WT [1], on PKR R510Q, on PKR R532W and at PKR WT [2] was below 100 nM throughout.
As to `Nc1nc2c(S(=O)(=O)Nc3ccc(C(=O)N4CCC(O)(c5ccccc5Cl)CC4)cc3)cccc2s1` [Compound 407, 2-amino-N-(4-(4-(2-chlorophenyl)-4-hydroxypiperidine-1-carbonyl)phenyl)benzo[d]thiazole-4-sulfonamide], the AC50 at PKR WT [1], at PKR R510Q, on PKR R532W and at PKR WT [2] was below 100 nM in each case.
Regarding `CNc1nc2c(S(=O)(=O)Nc3ccc(C(=O)N4CCC(O)(CC(C)C)CC4)cc3)cccc2s1` [Compound 408, N-(4-(4-hydroxy-4-isobutylpiperidine-1-carbonyl)phenyl)-2-(methylamino)benzo[d]thiazole-4-sulfonamide], the AC50 at PKR WT [1], at PKR R510Q, on PKR R532W and on PKR WT [2] was below 100 nM in each case.
For `Cn1cc(C2(O)CCN(C(=O)c3ccc(NS(=O)(=O)c4cccc5scnc45)cc3)CC2)cn1` [Compound 411, N-[4-[4-hydroxy-4-(1-methylpyrazol-4-yl)piperidine-1-carbonyl]phenyl]benzothiazole-4-sulfonamide], the AC50 on PKR WT [1] is 101 to 1000 nM; at PKR R510Q it was 101 to 1000 nM; on PKR R532W it was below 100 nM; at PKR WT [2], below 100 nM.
On to `O=C(c1ccc(NS(=O)(=O)c2cccc3scnc23)cc1)N1CCC(O)(Cc2ccccc2C(F)(F)F)CC1` [Compound 412, N-(4-(4-hydroxy-4-(2-(trifluoromethyl)benzyl)piperidine-1-carbonyl)phenyl)benzo[d]thiazole-4-sulfonamide], for which the AC50 on PKR WT [1] was below 100 nM; on PKR R510Q, 101 to 1000 nM; on PKR R532W, below 100 nM; at PKR WT [2] it was 101 to 1000 nM.
With `Nc1nc2c(S(=O)(=O)Nc3ccc(C(=O)N4CCC(O)(CCCC(F)(F)F)CC4)cc3)cccc2s1` [Compound 420], the AC50 at PKR WT [1], at PKR R510Q, on PKR R532W and on PKR WT [2] was below 100 nM throughout.
Regarding `Nc1nc2c(S(=O)(=O)Nc3ccc(C(=O)N4CCC(O)(c5cccc(F)c5F)CC4)cc3)cccc2s1` [Compound 422], the AC50 at PKR WT [1], on PKR R510Q, at PKR R532W and on PKR WT [2] was below 100 nM throughout.
In the case of `CC(C)CC1(O)CCN(C(=O)c2ccc(NS(=O)(=O)c3cccc4c3OCO4)cc2)CC1` [Compound 423], the AC50 on PKR WT [1] is below 100 nM; at PKR R510Q it was 101 to 1000 nM; at PKR R532W, below 100 nM; at PKR WT [2], below 100 nM.
For `O=C(c1ccc(NS(=O)(=O)c2cccc3c(O)ncnc23)cc1)N1CCC(O)(/C=C/CC(F)(F)F)CC1` [Compound 424], the AC50 at PKR WT [1] is below 100 nM; at PKR R510Q it was below 100 nM; at PKR R532W it was 101 to 1000 nM; on PKR WT [2], 101 to 1000 nM.
Turning to `Nc1nc2c(S(=O)(=O)Nc3ccc(C(=O)N4CCC(O)(/C=C/CC(F)(F)F)CC4)cc3)cccc2s1` [Compound 425], the AC50 was below 100 nM on PKR WT [1], below 100 nM at PKR R510Q, 101 to 1000 nM on PKR R532W and below 100 nM at PKR WT [2].
With `O=C(c1ccc(NS(=O)(=O)c2cccc3c(O)ncnc23)cc1)N1CCC(O)(CCC(F)(F)F)CC1` [Compound 426], the AC50 on PKR WT [1], on PKR R510Q, at PKR R532W and on PKR WT [2] was 101 to 1000 nM in each case.
Regarding `O=C(c1ccc(NS(=O)(=O)c2cccc3c(O)ncnc23)cc1)N1CCC(O)(CCCC(F)(F)F)CC1` [Compound 427], the AC50 at PKR WT [1], on PKR R510Q, on PKR R532W and on PKR WT [2] was below 100 nM throughout.

Broadly, the AC50 is the midpoint of the concentration-response curve, whichever way the signal moves.
